Like-named read-outs stand apart in the source and are kept apart here.
Key:
[1] = cited from earlier work
[2] = Human intestinal absorption percentage values of the PreHIA data set (732 compounds, Table S2); conditions: class from HIA value
[3] = in vivo
[4] = human, PreHIA data set, value given as fraction

Compound: Clc1ccc2c(c1)C(N1CCNCC1)=Nc1ccccc1O2 [Amoxapine]
- HIA(Human Intestinal Absorption) [1, 4]: 0.95
- Class(High: HIA value ≥0.7; Low: HIA value < 0.7) [2]: High (High: HIA value ≥0.7)

Compound: CC1(C)S[C@@H]2[C@H](NC(=O)[C@H](N)c3ccc(O)cc3)C(=O)N2[C@H]1C(=O)O [Amoxicillin]
- Class(High: HIA value ≥0.7; Low: HIA value < 0.7) [2]: High (High: HIA value ≥0.7)

Compound: NS(=O)(=O)c1cc(-c2nnn[nH]2)c(NCc2cccs2)cc1Cl [Azosemide]
- HIA(Human Intestinal Absorption) [1, 4]: 0.1
- Class(High: HIA value ≥0.7; Low: HIA value < 0.7) [2]: Low (Low: HIA value < 0.7)

Compound: CC(=O)Nc1ccc(OC(=O)c2ccccc2OC(C)=O)cc1 [Benorylate]
- HIA(Human Intestinal Absorption) [1, 4]: 1
- Class(High: HIA value ≥0.7; Low: HIA value < 0.7) [2]: High (High: HIA value ≥0.7)

Compound: CN(Cc1cc(Br)cc(Br)c1N)C1CCCCC1 [Bromhexine]
- HIA(Human Intestinal Absorption) [1, 4]: 0.7
- Class(High: HIA value ≥0.7; Low: HIA value < 0.7) [2]: High (High: HIA value ≥0.7)

Compound: O=C1CC2(CCCC2)CC(=O)N1CCCCN1CCN(c2ncccn2)CC1 [Buspirone]
- HIA(Human Intestinal Absorption) [1, 4]: 1
- Class(High: HIA value ≥0.7; Low: HIA value < 0.7) [2]: High (High: HIA value ≥0.7)

Compound: CCCC[N+]1(C)[C@@H]2C[C@@H](OC(=O)[C@H](CO)c3ccccc3)C[C@H]1[C@@H]1O[C@@H]12 (some centres unmarked) [Butylscopolamine]
- HIA(Human Intestinal Absorption) [1, 4]: 0.1
- Class(High: HIA value ≥0.7; Low: HIA value < 0.7) [2]: Low (Low: HIA value < 0.7)

Compound: C[N+](C)(C)CC(O)CC(=O)[O-] (centres unmarked) [Carnitine]
- HIA(Human Intestinal Absorption) [1, 4]: 0.1
- Class(High: HIA value ≥0.7; Low: HIA value < 0.7) [2]: Low (Low: HIA value < 0.7)

Compound: O=C(O)[C@H](CCc1ccccc1)N[C@H]1CCCN2CCC[C@@H](C(=O)O)N2C1=O [Cilazaprilat]
- HIA(Human Intestinal Absorption) [1, 4]: 0.2
- Class(High: HIA value ≥0.7; Low: HIA value < 0.7) [2]: Low (Low: HIA value < 0.7)

Compound: C=C[C@H]1C[N@@]2CC[C@H]1C[C@@H]2[C@@H](O)c1ccnc2ccccc12 [Cinchonine]
- HIA(Human Intestinal Absorption) [1, 4]: 1
- Class(High: HIA value ≥0.7; Low: HIA value < 0.7) [2]: High (High: HIA value ≥0.7)

Compound: O=C(O)[C@H]1/C(=C/CO)O[C@@H]2CC(=O)N21 [Clavulanic_acid]
- HIA(Human Intestinal Absorption) [1, 4]: 0.75
- Class(High: HIA value ≥0.7; Low: HIA value < 0.7) [2]: High (High: HIA value ≥0.7)

Compound: CN1CCC(=C2c3ccccc3C=Cc3ccccc32)CC1 [Cyproheptadine]
- HIA(Human Intestinal Absorption) [1, 4]: 0.8
- Class(High: HIA value ≥0.7; Low: HIA value < 0.7) [2]: High (High: HIA value ≥0.7)

Compound: CCN(CC)CCOC(=O)C1(C2CCCCC2)CCCCC1 [Dicyclomine]
- HIA(Human Intestinal Absorption) [1, 4]: 1
- Class(High: HIA value ≥0.7; Low: HIA value < 0.7) [2]: High (High: HIA value ≥0.7)

Compound: CN1C[C@H](C(=O)N[C@]2(C)O[C@@]3(O)[C@@H]4CCCN4C(=O)[C@H](Cc4ccccc4)N3C2=O)C[C@@H]2c3cccc4[nH]cc(c34)C[C@H]21 [Dihydroergotamine]
- HIA(Human Intestinal Absorption) [1, 4]: 0.35
- Class(High: HIA value ≥0.7; Low: HIA value < 0.7) [2]: Low (Low: HIA value < 0.7)

Compound: CN(C(=O)C(Cl)Cl)c1ccc(O)cc1 [Diloxanide]
- HIA(Human Intestinal Absorption) [1, 4]: 0.9
- Class(High: HIA value ≥0.7; Low: HIA value < 0.7) [2]: High (High: HIA value ≥0.7)

Compound: C[N+]1(C)CCC(=C(c2ccccc2)c2ccccc2)CC1 [Diphemanil]
- HIA(Human Intestinal Absorption) [1, 4]: 0.07
- Class(High: HIA value ≥0.7; Low: HIA value < 0.7) [2]: Low (Low: HIA value < 0.7)

Compound: CN(C)CCC=C1c2ccccc2COc2ccccc21 [Doxepin]
- HIA(Human Intestinal Absorption) [1, 4]: 1
- Class(High: HIA value ≥0.7; Low: HIA value < 0.7) [2]: High (High: HIA value ≥0.7)

Compound: NC(=O)OCC(COC(N)=O)c1ccccc1 [Felbamate]
- HIA(Human Intestinal Absorption) [1, 4]: 0.9
- Class(High: HIA value ≥0.7; Low: HIA value < 0.7) [2]: High (High: HIA value ≥0.7)

Compound: CC(C)=CCC1C(=O)N(c2ccccc2)N(c2ccccc2)C1=O [Feprazone]
- HIA(Human Intestinal Absorption) [1, 4]: 0.9
- Class(High: HIA value ≥0.7; Low: HIA value < 0.7) [2]: High (High: HIA value ≥0.7)

Compound: O=CN(O)CCCP(=O)(O)O [Fosmidomycin]
- HIA(Human Intestinal Absorption) [1, 4]: 0.3
- Class(High: HIA value ≥0.7; Low: HIA value < 0.7) [2]: Low (Low: HIA value < 0.7)

Compound: C[C@H]([C@](O)(Cn1cncn1)c1ccc(F)cc1F)S(C)(=O)=O [Genaconazole]
- HIA(Human Intestinal Absorption) [1, 4]: 1
- Class(High: HIA value ≥0.7; Low: HIA value < 0.7) [2]: High (High: HIA value ≥0.7)

Compound: CCOC(=O)N1CCC(=C2c3ccc(Cl)cc3CCc3cccnc32)CC1 [Loratadine]
- Class(High: HIA value ≥0.7; Low: HIA value < 0.7) [2]: High (High: HIA value ≥0.7)

Compound: C[C@@H]1O[C@@H](O[C@H]2C[C@@H](O)[C@]3(CO)[C@H]4[C@H](O)C[C@]5(C)[C@@H](C6=CC(=O)OC6)CC[C@]5(O)[C@@H]4CC[C@]3(O)C2)[C@H](O)[C@H](O)[C@H]1O [Ouabain]
- Class(High: HIA value ≥0.7; Low: HIA value < 0.7) [2]: Low (Low: HIA value < 0.7)

Compound: C[C@H](CN(C)C)CN1c2ccccc2Sc2ccccc21 [Trimeprazine(R)]
- Class(High: HIA value ≥0.7; Low: HIA value < 0.7) [3]: High (key: High: HIA value ≥0.7; Low: HIA value < 0.7)
- HIA(Human Intestinal Absorption) ([1]; in vivo): 0.8

Compound: C[C@@H](CN(C)C)CN1c2ccccc2Sc2ccccc21 [Trimeprazine(S)]
- Class(High: HIA value ≥0.7; Low: HIA value < 0.7) [3]: High (key: High: HIA value ≥0.7; Low: HIA value < 0.7)
- HIA(Human Intestinal Absorption) ([1]; in vivo): 0.8

Compound: C[C@H](CN(C)C)CN1c2ccccc2CCc2ccccc21 [Trimipramine(R)]
- Class(High: HIA value ≥0.7; Low: HIA value < 0.7) [3]: High (key: High: HIA value ≥0.7; Low: HIA value < 0.7)
- HIA(Human Intestinal Absorption) ([1]; in vivo): 0.8

Compound: C[C@@H](CN(C)C)CN1c2ccccc2CCc2ccccc21 [Trimipramine(S)]
- Class(High: HIA value ≥0.7; Low: HIA value < 0.7) [3]: High (key: High: HIA value ≥0.7; Low: HIA value < 0.7)
- HIA(Human Intestinal Absorption) ([1]; in vivo): 0.8

Compound: O=C(O[C@H]1C[C@H]2CC[C@@H](C1)[N+]21CCCC1)C(O)(c1ccccc1)c1ccccc1 [Trospium_chloride]
- Class(High: HIA value ≥0.7; Low: HIA value < 0.7) [3]: Low (key: High: HIA value ≥0.7; Low: HIA value < 0.7)
- HIA(Human Intestinal Absorption) ([1]; in vivo): 0.1

Compound: CCCCC(=O)N(Cc1ccc(-c2ccccc2-c2nnn[nH]2)cc1)[C@H](C(=O)O)C(C)C [Valsartan(S)]
- Class(High: HIA value ≥0.7; Low: HIA value < 0.7) [3]: Low (key: High: HIA value ≥0.7; Low: HIA value < 0.7)
- HIA(Human Intestinal Absorption) ([1]; in vivo): 0.55

Compound: COc1ccc([C@H](CN(C)C)C2(O)CCCCC2)cc1 [Venlafaxine(R)]
- Class(High: HIA value ≥0.7; Low: HIA value < 0.7) [3]: High (key: High: HIA value ≥0.7; Low: HIA value < 0.7)
- HIA(Human Intestinal Absorption) ([1]; in vivo): 0.95

Compound: COc1ccc([C@@H](CN(C)C)C2(O)CCCCC2)cc1 [Venlafaxine(S)]
- Class(High: HIA value ≥0.7; Low: HIA value < 0.7) [3]: High (key: High: HIA value ≥0.7; Low: HIA value < 0.7)
- HIA(Human Intestinal Absorption) ([1]; in vivo): 0.95

Compound: COc1ccc(CCN(C)CCCN2CCc3cc(OC)c(OC)cc3CC2=O)cc1OC [Zatebradin]
- Class(High: HIA value ≥0.7; Low: HIA value < 0.7) [3]: High (key: High: HIA value ≥0.7; Low: HIA value < 0.7)
- HIA(Human Intestinal Absorption) ([1]; in vivo): 0.79

Compound: C[C@H](c1cc2ccccc2s1)N(O)C(N)=O [Zileuton(R)]
- Class(High: HIA value ≥0.7; Low: HIA value < 0.7) [3]: High (key: High: HIA value ≥0.7; Low: HIA value < 0.7)
- HIA(Human Intestinal Absorption) ([1]; in vivo): 1

Compound: C[C@@H](c1cc2ccccc2s1)N(O)C(N)=O [Zileuton(S)]
- Class(High: HIA value ≥0.7; Low: HIA value < 0.7) [3]: High (key: High: HIA value ≥0.7; Low: HIA value < 0.7)
- HIA(Human Intestinal Absorption) ([1]; in vivo): 1

Compound: Cc1ccc(-c2nc3ccc(C)cn3c2CC(=O)N(C)C)cc1 [Zolpidem]
- Class(High: HIA value ≥0.7; Low: HIA value < 0.7) [3]: High (key: High: HIA value ≥0.7; Low: HIA value < 0.7)
- HIA(Human Intestinal Absorption) ([1]; in vivo): 0.95

Compound: CN1CCN(C(=O)O[C@@H]2c3nccnc3C(=O)N2c2ccc(Cl)cn2)CC1 [Zopiclone(R)]
- Class(High: HIA value ≥0.7; Low: HIA value < 0.7) [3]: High (key: High: HIA value ≥0.7; Low: HIA value < 0.7)
- HIA(Human Intestinal Absorption) ([1]; in vivo): 0.98

Compound: CN1CCN(C(=O)O[C@H]2c3nccnc3C(=O)N2c2ccc(Cl)cn2)CC1 [Zopiclone(S)]
- Class(High: HIA value ≥0.7; Low: HIA value < 0.7) [3]: High (key: High: HIA value ≥0.7; Low: HIA value < 0.7)
- HIA(Human Intestinal Absorption) ([1]; in vivo): 0.98
